{
  "source": "patent US20100310665A1",
  "about": "“BACTERIOSTATIC OR BACTERIOCIDAL COMPOSITIONS AND METHODS” (Revalesio Corporation, priority 2007, published 2010)",
  "test_system": "Methicillin-Resistant Staphylococcus Aureus (MRSA)",
  "experiment": "MRSA bacteriocidal effects, plates with no growth",
  "format": "cell-based",
  "parameters": "concentration or dose not given beside the values",
  "conditions": "fluids in combination with oxacillin",
  "data": [
    {"smiles": "Cc1onc(-c2ccccc2)c1C(=O)N[C@@H]1C(=O)N2[C@@H]1SC(C)(C)[C@@H]2C(=O)O", "note": "[Drug, oxacillin]", "values": [
      {"measurement": "Percentage of plates with no growth at indicated time", "setting": "0 min", "result": 16.67, "unit": "%"},
      {"measurement": "Percentage of plates with no growth at indicated time", "setting": "30 min", "result": 0.00, "unit": "%"},
      {"measurement": "Percentage of plates with no growth at indicated time", "setting": "120 min", "result": 0.00, "unit": "%"},
      {"measurement": "Percentage of plates with no growth at indicated time", "setting": "240 min", "result": 0.00, "unit": "%"},
      {"measurement": "Percentage of plates with no growth at indicated time", "setting": "480 min", "result": 0.00, "unit": "%"},
      {"measurement": "Percentage of plates with no growth at indicated time", "setting": "1080 min", "result": 0.00, "unit": "%"},
      {"measurement": "Percentage of plates with no growth at indicated time", "setting": "1440 min", "result": 0.00, "unit": "%"}
    ]}
  ]
}
